From patent US8110365B2, “Compositions and methods for detecting and treating renal injury and inflammation” (Rhode Island Hospital, priority 2006, dated 2012)
Entries after “also recorded” stand apart in the source; their conditions may differ.

Tests used:
endothelial cells = test: Monocyte adhesion to TNF-α-activated endothelial monolayers; assay type: cell-based, human
NFkB p65 = test: TNF-a induced NFkB p65 phosphorylation in HKC cells (immunoblot); assay type: cell-based, human
Description: (§1) Human proximal TEC (HKC-8) (courtesy of Dr. L. Racusen of John Hopkins University, Baltimore, Md.) were maintained in Dulbecco's modified Eagle's medium (DMEM)/F12 supplemented with 5% fetal bovine serum (FBS). Cells were plated at approximately 70% confluence in the media containing 5% FBS for 24 h and then underwent serum starvation for another 24 h. Human recombinant HGF and human recombinant TNF-α (R&D systems, Minneapolis, Minn.) were added to the culture with fresh serum-free medium at a final concentration of 20 ng/ml and 2 ng/ml respectively, or otherwise as indicated. Cell viability was assessed by Trypan blue exclusion. At different time points, cells and conditioned media were harvested for further investigation.
(§2) After different treatments, HKC cells were washed with PBS and lysed with RIPA buffer supplemented with protease inhibitors [1% Nonidet P-40, 0.1% SDS, 100 ug/ml phenylmethysulfonyl fluoride (PMSF), 0.5% sodium deoxycholate, ImM sodium orthovanadate, 2 ug/ml aprotin, 2 ug/ml leupeptin, 5mM EDTA in PBS]. Protein concentration was determined by using a bicinchoninic acid protein assay kit (Sigma). All samples with equal amounts of total protein (50 ug/ml) were fractionated by 7.5˜15% SDS-polyacrylamide gels under reducing condition and analyzed by western immunoblot as described previously (30). The antibodies against p-GSK3b, p-NFkB p65, p-IkBa were purchased from Cell Signaling Technology (Beverly, Mass.) and those for GSK3b, hemagglutin were from Santa Cruz Biotechnology (Santa Cruz, Calif.).

GSK3b and NFkB p65 [1] = biological target: T1, GSK3b and NFkB p65 (Homo sapiens, UniProt P49841); test: Co-immunoprecipitation of GSK3b and NFkB p65 in HKC cells; assay type: cell-based
T1 construct: whole cell lysates were subjected to immunoprecipitation by anti-GSK3b or anti-p65 antibody; endogenous in cells; host or cells: HKC-8
T1 sequence (P49841 whole entry): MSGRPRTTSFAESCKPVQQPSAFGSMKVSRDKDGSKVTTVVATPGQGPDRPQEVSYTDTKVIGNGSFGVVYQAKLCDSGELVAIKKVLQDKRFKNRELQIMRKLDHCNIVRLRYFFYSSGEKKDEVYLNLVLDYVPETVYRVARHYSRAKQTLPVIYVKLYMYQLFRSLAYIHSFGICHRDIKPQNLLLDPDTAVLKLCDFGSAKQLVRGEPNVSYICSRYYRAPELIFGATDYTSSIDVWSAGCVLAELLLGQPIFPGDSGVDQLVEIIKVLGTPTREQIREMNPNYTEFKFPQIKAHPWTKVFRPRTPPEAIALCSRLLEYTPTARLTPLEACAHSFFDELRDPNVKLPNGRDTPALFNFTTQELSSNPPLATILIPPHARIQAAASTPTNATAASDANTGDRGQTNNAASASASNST
Description: (§3) Immunoprecipitation was carried out by using an established method as described previously. Briefly, cells were washed with ice cold PBS and then lysed with RIPA buffer. After preclearing with normal IgG, cell lysates with equal amount of total protein (0.5 mg of protein) were incubated overnight at 4° C. with 4 μg specific agarose-conjugated antibodies. The precipitated complexes were collected, washed, and separated on SDS-polyacrylamide gels and blotted with various antibodies as indicated.

GSK3b and NFkB p65 [2] = biological target: T2, GSK3b and NFkB p65 (Homo sapiens, UniProt P49841, S9A); test: as above; assay type: cell-based; details: HKC cells expressing S9A, TNF-a stimulation
T2 construct: endogenous in cells; host or cells: HKC-8
T2 sequence (P49841 whole entry S9A): as the sequence (P49841 whole entry) above, with S9A counted along it
Description: as §3

NFkB target genes = test: Real time RT-PCR of NFkB target genes in TNF-a stimulated HKC cells; assay type: cell-based, human
Description: Total RNA was extracted from approximately 1×10^6 cultured HKC cells using TRIzol solution (Invitrogen, Carlsbad, Calif.) according to the instructions specified by the manufacturer. RNA was then diluted to 3μg/μl in RNase free distilled water. The first strand cDNA was prepared using 3 μg RNA, Superscript RT reverse transcriptase (Invitrogen) and oligo (dT) primer according to the manufacture's instruction. Quantitative real time PCR was carried out on a Stratagene Mx4000® multiplex quantitative PCR system (Stratagene, La Jolla, Calif.) using primers specific for human MCP-1, RANTES, IkBa, Bcl-2 and GAPDH. All reactions were performed in triplicate with Brilliant® SYBR® Green QPCR Master Mix (Stratagene). Fluorescence values of SYBR Green I dye, representing the amount of product amplified at that point in the reaction, were recorded in real time at both the annealing step and the extension step of each cycle. The Ct value, defined as the point at which the fluorescence signal was statistically significant above background, was calculated for each amplicon in each experimental sample using Stratagene Mx4000 software. This value was then used to determine the relative amount of amplification in each sample by interpolating from the standard curve. Transcript level of each specific gene was normalized to GAPDH amplification.

NF-κB = test: Gel shift assay of HKC nuclear extract with NF-κB consensus sequence; assay type: cell-based, human; details: HKC cells, 4 h
[3] = test system: phosphatidylinositol 3-kinase (PI3K)-Akt; test: PI3K-Akt activation in HUVEC; assay type: cell-based, human
PI3K-Akt = PI3K-Akt activation in HKC / TEC; assay type: cell-based, human
GSK3b [4] = biological target: T3, GSK3b (Rattus norvegicus, UniProt P18266); test: Renal GSK3b expression in the kidney; assay type: in vivo
T3 construct: from tissue; host or cells: rat kidney (homogenate)
T3 sequence (P18266 whole entry): as the sequence (P49841 whole entry) above, with V240M, T390P, T392A, A400T, T402A counted along it
Description: In certain embodiments, measurement of GSK level and activity in tissue samples is carried out as follows. Total expression of GSK3b, is measured by western immunoblot in kidney homogenates using a commercially available mouse monoclonal antibody against rat GSK3b (Santa Cruz Biotechology). Densitometric analysis of immunoblot bands is used to compare protein abundance of GSK3b in remnant kidneys and controls at each time point.

NF-kB and IkB = NF-kB and IkB phosphorylation and IkB degradation in endothelial cells; assay type: cell-based
Description: In certain embodiments, NF-kB p65 phosphorylation is assessed as follows. Cell lysates with equal amounts of total protein are immunoblotted for phosphorylated NF-kB p65 or total p65. Anti-phosphorylated NF-kB p65 antibody is commercially available, e.g., from Cell Signaling, MA. Densitometric results of phosphorylated NF-kB p65 and total p65 bands as well as the ratio of pp65/p65 are compared between different transfections at different time points.
In certain embodiments, IkB phosphorylation and degradation is evaluated as follows. Cell lysates with equal amounts of total protein are immunoblotted for phosphorylated IkBa (anti-phosphorylated IkBa antibody is available from Cell Signaling. MA) or total IkBa. Densitometric results of phosphorylated IkBa and total IkBa bands are compared across the different treatments and time points.

GSK3b [5] = biological target: GSK3b (Homo sapiens, UniProt P49841); test: Inhibitory phosphorylation of GSK3b in HKC cells (immunoblot); assay type: cell-based; set-up: endogenous in cells; host or cells: HKC-8
GSK3b (Homo sapiens, UniProt P49841), sequence (P49841 whole entry): as the sequence (P49841 whole entry) above
Description: as §1, §2

For “HGF: Human recombinant HGF (R&D systems); induces inhibitory phosphorylation of GSK3b”, the “monocytic adhesion to endothelial cells” value (endothelial cells) was “abrogated monocyte adhesion to TNF-α-activated endothelial monolayers; also recorded: inhibited E-selectin mediated monocytic adhesion to endothelial cells”, the “TNF-a induced p65 phosphorylation at other sites (S276, S536)” value (NFkB p65; HKC cells) was “had minimal effect on S276” and the “HGF inhibition of TNF-a-induced phosphorylation of p65 at S468” value (NFkB p65; HKC cells expressing GSK3b S9A) was “strikingly abolished in cells expressing S9A; also recorded: obliterated in HKC cells expressing GSK3b S9A”. For the same substance, the “TNF-a induced p65 phosphorylation at S468” value (NFkB p65; HKC cells, TNF-a 2 ng/ml, VPA 1 mM, 10 uM for 60 minutes) was “markedly abolished TNF-a induced phosphorylation of S468 in a time dependent fashion; also recorded: suppresses NFkB phosphorylation specifically at S468”, the “TNF-a induced co-precipitation of phosphorylated p65 (Ser468) with GSK3b” value (GSK3b and NFkB p65 [1]; HKC cells, immunoprecipitation by anti-GSK3b) was “abrogated TNFa induced co-precipitation” and the “TNF-a induced GSK3b to p65 interaction” value (GSK3b and NFkB p65 [1]; HKC cells, immunoprecipitation by anti-p65) was “remarkably overridden by HGF; also recorded: suppressive effect on physical interaction between GSK3b and RelA/p65”. For the same substance, the “co-precipitation of HA-tagged GSK3b with p65 / phosphorylated p65(S468)” value (GSK3b and NFkB p65 [1]; WT transfected HKC cells, TNF-a stimulation) was “markedly reduced HA co-precipitation with p65 in the WT transfected cells; also recorded: significantly attenuated by HGF in WT transfected cells”, the “co-precipitation of HA-tagged GSK3b with p65 / phosphorylated p65(S468)” value (GSK3b and NFkB p65 [2]) was “considerably abrogated in HKC cells expressing S9A; also recorded: substantially blunted in cells expressing S9A; also recorded: overridden in cells expression the mutant uninhibitable GSK3b” and the “suppressive effect of HGF on TNF-a induced MCP-1 and RANTES mRNA expression” value (NFkB target genes; HKC cells expressing S9A) was “obliterated in cells expressing S9A; also recorded: obliterated in cells expressing the mutant uninhibitable GSK3b”. The “suppressive effect of HGF on TNF-a induced MCP-1 and RANTES mRNA expression” value (NFkB target genes; HKC cells transfected with EV or WT) was “present in cells transfected with EV or WT”, the “TNF-a induced mRNA expression of IkBa and Bcl-2” value (NFkB target genes; HKC cells, 12 h) was “not remarkably affected” and the “TNF-a induced mRNA expression of MCP-1 and RANTES” value (NFkB target genes; HKC cells, 12 h) was “strikingly attenuated TNF-a induced mRNA expression of MCP-1 and RANTES; also recorded: selectively regulates TNF-a induced transcription of specific NFkB target genes”. The “TNF-α induced binding of nuclear extract to NF-κB consensus oligonucleotides” value (NF-κB) was “markedly blunted by HGF; also recorded: attenuated by HGF”, the PI3K-Akt activation [3] was “activated phosphatidylinositol 3-kinase (PI3K)-Akt” and the PI3K-Akt activation (PI3K-Akt) was “elicited PI3K-Akt activation; also recorded: activates PI3K-Akt in TEC”. The “renal GSK3b expression” value (GSK3b [4]) was “markedly decreased GSK3b expression”, the “NF-kB and IkB phosphorylation and IkB degradation” value (NF-kB and IkB) was “inhibition of NF-kB and IkB phosphorylation and IkB degradation” and the “inhibitory phosphorylation of GSK3b (S9)” value (GSK3b [5]) was “inhibited GSK3, by phosphorylation at Ser-9; also recorded: induce GSK3b phosphorylation at Ser9; also recorded: induces inhibitory phosphorylation of GSK3b at S9”.
